Source: patent publication US4263301A, “β-Phenyl-β-hydroxyethylaminoalkyltheophyllines as inhibitors of biosynthesis of triglycerides” (Shell Oil Company, priority 1980, dated 1981)

Tested on: synthesis of triglycerides (enzyme from pig adipose tissue)
Experiment: Inhibition of triglyceride synthesis by enzyme preparation (homogenate supernatant) from pig adipose tissue, 14C-glycerol-3-phosphate incorporation
Type: biochemical
Details: test compound 1000 micrograms per milliliter, 5% DMSO, incubated eight minutes at 37° C; compared to controls; average of two animals, three replicates each
Procedure: The manner in which they cause this effect has not been established. Their effectiveness for this purpose has been ascertained by the following procedure.
An enzyme was prepared by homogenizing one gram of slices from pig adipose tissue, each slice being approximately 0.3 mm thick, in one-milliliter portions of a liquid medium (Liquid A). The homogenate then was centrifuged (10,000 g×15 minutes), and the supernatant phase (the enzyme) was poured through cheesecloth to remove fat that has risen to the top of the centrifuge tubes.
Liquid A had the following composition (in water):
0.15 M potassium chloride, 1 mM ethylenediaminetetracetic acid, 10 mM Hepes (N-2-hydroxyethylpiperazine-N'-2-ethanesulfonic acid), 1 mM DTT (dithiothreitol), pH=7.0.
A solution of the test compound (Liquid B) was prepared: 10 milligrams of test compound plus 0.5 milliliter dimethylsulfoxide (DMSO) plus 1.83 milliliters of glass-distilled water.
A premix (Liquid C) was freshly prepared before each test, from the following components. […]
0.25 milliliter of enzyme then was added. […] Ten milliliters of a 2:1 (v/v) mixture of toluene and Triton X-100 containing 0.27% New England Nuclear Omnifluor was added, and the radioactivity was determined in a liquid scintillation counter. […]
The percent inhibition by the test compound compared to the controls […] was determined.

| Compound | Percent Inhibition |
| --- | --- |
| Cl.Cn1c(=O)c2c(ncn2CCCNCC(O)c2cc(C(C)(C)C)c(O)c(C(C)(C)C)c2)n(C)c1=O (centres unmarked) [7-(3-(2-(3,5-bis-(1,1-dimethylethyl)-4-hydroxyphenyl)-2-hydroxyethylamino)propyl)-3,7-dihydro-1,3-dimethyl-1H-purine-2,6-dione, hydrochloride] | 93 |
| Cl.Cn1c(=O)c2c(ncn2CCNCC(O)c2cc(C(C)(C)C)c(O)c(C(C)(C)C)c2)n(C)c1=O (centres unmarked) [7-(2-(2-(3,5-bis-(1,1-dimethylethyl)-4-hydroxyphenyl)-2-hydroxyethylamino)ethyl)-3,7-dihydro-1,3-dimethyl-1H-purine-2,6-dione, hydrochloride] | 95 |
